# Measured values from BindingDB's records for doi:10.1016/0024-3205(85)90028-1 (Universit&Eacute, 1985).
# Where a name gives a salt, the structure may show the parent alone.
# Biological target: D(1A) dopamine receptor (Rattus norvegicus, UniProt P18901)
# Sequence (P18901 whole entry): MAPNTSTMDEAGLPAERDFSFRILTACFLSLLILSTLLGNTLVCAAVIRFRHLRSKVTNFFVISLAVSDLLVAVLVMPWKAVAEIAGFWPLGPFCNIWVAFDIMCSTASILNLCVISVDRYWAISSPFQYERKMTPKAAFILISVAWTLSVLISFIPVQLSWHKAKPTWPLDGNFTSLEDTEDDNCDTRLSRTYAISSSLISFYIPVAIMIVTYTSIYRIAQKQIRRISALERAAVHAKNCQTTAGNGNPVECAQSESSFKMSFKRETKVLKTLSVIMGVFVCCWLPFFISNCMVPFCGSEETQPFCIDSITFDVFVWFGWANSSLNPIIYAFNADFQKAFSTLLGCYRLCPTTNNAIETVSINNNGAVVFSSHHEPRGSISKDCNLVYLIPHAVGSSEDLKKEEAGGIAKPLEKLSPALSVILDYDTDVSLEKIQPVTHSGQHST
row,Compound,Ki [nM]
1,"O=C(c1ccc(F)cc1)C1CCN(CCn2c(=O)[nH]c3ccccc3c2=O)CC1 [3-(2-{4-[(4-fluorophenyl)carbonyl]piperidin-1-yl}ethyl)-1,2,3,4-tetrahydroquinazoline-2,4-dione]",200
2,O=c1[nH]c2ccccc2n1CCCN1CCC(n2c(=O)[nH]c3cc(Cl)ccc32)CC1,> 10000
3,NC1CCc2cc(O)c(O)cc2C1 (stereo not given),5120
4,"CC(CN1c2ccccc2Sc2ccccc21)N(C)C (stereo not drawn) [N,N,alpha-trimethyl-10H-phenothiazine-10-ethanamine]",1780
5,OCCN1CCN(CCCN2c3ccccc3Sc3ccc(Cl)cc32)CC1 [4-[3-(2-chlorophenothiazin-10-yl)propyl]-1-piperazineethanol],44
6,c1ccc2c(c1)Nc1ccccc1S2 [phenothiazine],> 10000
7,NCCc1c[nH]c2ccc(O)cc12 [[3H]-5-HT],5000
8,OCCN1CCN(CCCN2c3ccccc3Sc3ccc(C(F)(F)F)cc32)CC1 [2-[4-[3-[2-(trifluoromethyl)phenothiazin-10-yl]propyl]piperazin-1-yl]ethanol;hydrochloride],4.5
9,CN1CCN(CC/C=C2/c3ccccc3Sc3ccc(S(=O)(=O)N(C)C)cc32)CC1 [MLS000028463],1520
10,"O=c1[nH]c2ccccc2n1C1CCN(CCCC(c2ccc(F)cc2)c2ccc(F)cc2)CC1 [1-(1-(4,4-bis(4-fluorophenyl)butyl)piperidin-4-yl)-1H-benzo[d]imidazol-2(3H)-one]",1420
